Measured values from patent publication US10722514B2 (FLX Bio, Inc., priority 2017, dated 2020).

target: T1, recombinant full-length USP7 (Homo sapiens, UniProt Q93009); experiment: USP7-mediated ubiquitin-rhodamine cleavage assay; assay type: biochemical; conditions: recombinant full-length USP7 62 pM; ubiquitin-rhodamine 100 nM; 30-minute incubation with compound, 1 hour reaction at room temperature; read-out: Potency: USP7 IC50
T1 construct: A 25 μl reaction volume containing recombinant full-length USP7 (62 pM)
Summary of the method: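 Full-length recombinant USP7 (62 pM) in 20 mM HEPES pH 7.3, 150 mM NaCl, 1 mM TCEP, 125 μg/ml BSA, 1% DMSO, preincubated with compound 30 min at RT. Ubiquitin-rhodamine (100 nM final) cleaved 1 h at RT in the dark, stopped with acetic acid; rhodamine fluorescence read, IC50 by 4-parameter nonlinear fit.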

T1 sequence (Q93009 whole entry): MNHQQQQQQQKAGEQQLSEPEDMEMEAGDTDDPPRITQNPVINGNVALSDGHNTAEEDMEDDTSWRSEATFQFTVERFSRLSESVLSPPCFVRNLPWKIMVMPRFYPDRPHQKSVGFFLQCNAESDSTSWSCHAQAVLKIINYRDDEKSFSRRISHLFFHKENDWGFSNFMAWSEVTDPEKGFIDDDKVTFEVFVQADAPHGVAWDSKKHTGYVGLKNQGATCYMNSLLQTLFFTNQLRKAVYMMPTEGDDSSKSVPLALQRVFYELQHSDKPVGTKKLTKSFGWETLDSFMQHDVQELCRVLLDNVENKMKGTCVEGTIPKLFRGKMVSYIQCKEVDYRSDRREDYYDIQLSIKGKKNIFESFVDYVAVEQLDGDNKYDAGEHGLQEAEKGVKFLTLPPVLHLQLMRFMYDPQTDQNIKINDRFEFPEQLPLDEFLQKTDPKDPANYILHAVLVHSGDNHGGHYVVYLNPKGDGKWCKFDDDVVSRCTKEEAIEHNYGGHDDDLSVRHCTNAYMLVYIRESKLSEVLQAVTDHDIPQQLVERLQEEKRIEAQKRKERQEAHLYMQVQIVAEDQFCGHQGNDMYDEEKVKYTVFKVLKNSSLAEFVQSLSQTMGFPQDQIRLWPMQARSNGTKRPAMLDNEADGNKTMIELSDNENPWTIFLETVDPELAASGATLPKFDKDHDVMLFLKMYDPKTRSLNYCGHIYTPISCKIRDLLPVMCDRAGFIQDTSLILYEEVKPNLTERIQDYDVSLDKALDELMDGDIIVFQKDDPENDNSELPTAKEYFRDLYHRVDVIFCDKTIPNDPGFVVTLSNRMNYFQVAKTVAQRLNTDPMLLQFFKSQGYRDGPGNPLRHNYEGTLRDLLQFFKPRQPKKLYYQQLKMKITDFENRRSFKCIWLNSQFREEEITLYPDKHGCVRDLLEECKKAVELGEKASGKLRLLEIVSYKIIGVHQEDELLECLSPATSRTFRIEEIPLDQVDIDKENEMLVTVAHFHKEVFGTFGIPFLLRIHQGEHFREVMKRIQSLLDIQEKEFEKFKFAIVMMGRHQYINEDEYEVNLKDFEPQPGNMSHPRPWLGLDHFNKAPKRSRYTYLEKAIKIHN

SMILES | IC50 [nM]
Cc1cc(Cl)cc(-c2ncnc3cc(CN4C(=O)CCN(C)C4=O)sc23)c1O[C@H]1CCCNC1 [Example 252, (S)-3-((4-(5-Chloro-3-methyl-2-(piperidin-3-yloxy)phenyl)thieno[3,2-d]pyrimidin-6-yl)methyl)-1-methyldihydropyrimidine-2,4(1H,3H)-dione] | < 1000
Cc1cc(Cl)cc(-c2ccnc3cc(Cn4c(=O)ccn(CC(F)(F)F)c4=O)sc23)c1O[C@H]1C[C@H](N)C1 [Example 277, 3-((7-(2-((1r,3r)-3-Aminocyclobutoxy)-5-chloro-3-methylphenyl)thieno[3,2-b]pyridin-2-yl)methyl)-1-(2,2,2-trifluoroethyl)pyrimidine-2,4(1H,3H)-dione] | < 1000
COc1ccc(C(=O)O)cc1-c1ccnc2cc(Cn3c(=O)ccn(CC(F)(F)F)c3=O)sc12 [Example 290, 3-[2-[[2,6-dioxo-3-(2,2,2-trifluoroethyl)pyrimidin-1-yl]methyl]thieno[3,2-b]pyridin-7-yl]-4-methoxy-benzoic acid] | 1000 to 10000
Cc1cc(Cl)cc(-c2ccnc3cc(CO)sc23)c1OC1CCNCC1 [Example 175, (7-(5-Chloro-3-methyl-2-(piperidin-4-yloxy)phenyl)thieno[3,2-b]pyridin-2-yl)methanol] | 1000 to 10000
N#Cc1cc(Cl)cc(-c2ccnc3cc(CO)sc23)c1O[C@H]1CCCNC1 [Example 239, (S)-5-Chloro-3-(2-(hydroxymethyl)thieno[3,2-b]pyridin-7-yl)-2-(piperidin-3-yloxy)benzonitrile] | > 30000
Cc1cc(Cl)cc(-c2ccnc3cc(Cn4c(C(F)(F)F)cccc4=O)sc23)c1OC1CCNCC1 [Example 227, 1-((7-(5-Chloro-3-methyl-2-(piperidin-4-yloxy)phenyl)thieno[3,2-b]pyridin-2-yl)methyl)-6-(trifluoromethyl)pyridin-2(1H)-one] | 10000 to 30000
Cc1cc([N+](=O)[O-])cc(-c2ccnc3cc(Cn4c(=O)ccn(CC(F)(F)F)c4=O)sc23)c1Oc1cncc(N)c1 [Example 281, 3-[[7-[2-[(5-amino-3-pyridyl)oxy]-3-methyl-5-nitro-phenyl]thieno[3,2-b]pyridin-2-yl]methyl]-1-(2,2,2-trifluoroethyl)pyrimidine-2,4-dione] | < 1000

Continued, values first:

IC50 [nM] | SMILES
< 1000 | Cc1cc(Cl)cc(-c2ccnc3c(F)c(CN4C(=O)CCC4=O)sc23)c1O[C@@H]1CNC[C@@H]1F [Example 65, 1-((7-(5-Chloro-2-(((3R,4S)-4-fluoropyrrolidin-3-yl)oxy)-3-methylphenyl)-3-fluorothieno[3,2-b]pyridin-2-yl)methyl)pyrrolidine-2,5-dione]
< 1000 | Cc1cc(Cl)cc(-c2ccnc3cc(CN4C(=O)CCC4=O)sc23)c1OC1CNCC1(C)C (stereo not drawn) [Example 345, 1-[[7-[5-chloro-2-(4,4-dimethylpyrrolidin-3-yl)oxy-3-methyl-phenyl]thieno[3,2-b]pyridin-2-yl]methyl]pyrrolidine-2,5-dione]
< 1000 | Cc1cc(Cl)cc(-c2ccnc3cc(CN4C(=O)C5CC5C4=O)sc23)c1O[C@H]1CC[C@H](C)NC1 (stereo partly drawn) [Example 305, 3-[[7-[5-chloro-3-methyl-2-[[(3S,6S)-6-methyl-3-piperidyl]oxy]phenyl]thieno[3,2-b]pyridin-2-yl]methyl]-3-azabicyclo[3.1.0]hexane-2,4-dione; 2,2,2-trifluoroacetic acid]
< 1000 | Cc1cc(Cl)cc(-c2ccnc3cc(CN4C(=O)CCC4=O)sc23)c1O[C@H]1CCNC[C@@H]1F [Example 208, 1-((7-(5-Chloro-2-(((3S,4S)-3-fluoropiperidin-4-yl)oxy)-3-methylphenyl)thieno[3,2-b]pyridin-2-yl)methyl)pyrrolidine-2,5-dione]
< 1000 | Cc1cc(C#N)cc(-c2ncnc3cc(CN4C(=O)c5ccccc5C4=O)sc23)c1O[C@@H]1CNC[C@@H]1F [Example 110, 3-(6-((1,3-Dioxoisoindolin-2-yl)methyl)thieno[3,2-d]pyrimidin-4-yl)-4-(((3R,4S)-4-fluoropyrrolidin-3-yl)oxy)-5-methylbenzonitrile]
1000 to 10000 | Cc1cc(Cl)cc(-c2ccnc3cc(CO)sc23)c1O[C@@H]1CNC[C@@H]1C [Example 56, (7-(5-Chloro-3-methyl-2-(((3S,4S)-4-methylpyrrolidin-3-yl)oxy)phenyl)thieno[3,2-b]pyridin-2-yl)methanol]
< 1000 | Cc1cc(Cl)cc(-c2ccnc3cc(CN4C(=O)CCC4=O)sc23)c1O[C@H]1CCNC[C@@H]1C [Example 223, 1-((7-(5-Chloro-3-methyl-2-(((3S,4S)-3-methylpiperidin-4-yl)oxy)phenyl)thieno[3,2-b]pyridin-2-yl)methyl)pyrrolidine-2,5-dione]
< 1000 | Cc1cc(Cl)cc(-c2ccnc3cc(CN4C(=O)CCC4=O)sc23)c1O[C@@H]1CNC[C@@H]1N=[N+]=[N-] [Example 83, 1-((7-(2-(((3R,4S)-4-Azidopyrrolidin-3-yl)oxy)-5-chloro-3-methylphenyl)thieno[3,2-b]pyridin-2-yl)methyl)pyrrolidine-2,5-dione]

same assay, conditions: recombinant full-length USP7 62 pM; ubiquitin-rhodamine 100 nM; 30-minute incubation, 1 hour reaction at room temperature; read-out: Potency (USP7 IC50)

IC50 [nM] | SMILES
< 1000 | Cc1cc(Cl)cc(-c2ccnc3cc(Cn4c(=O)ccn(CC(F)(F)F)c4=O)sc23)c1O[C@H]1C[C@@H]2NCCO[C@@H]2C1 [Example 696, 3-[[7-[2-[[(4aS,6S,7aR)-2,3,4,4a,5,6,7,7a-octahydrocyclopenta[b][1,4]oxazin-6-yl]oxy]-5-chloro-3-methyl-phenyl]thieno[3,2-b]pyridin-2-yl]methyl]-1-(2,2,2-trifluoroethyl)pyrimidine-2,4-dione]

same assay, conditions: recombinant full-length USP7 62 pM; ubiquitin-rhodamine 100 nM; 30-minute pre-incubation, 1 hour reaction at room temperature; read-out: Potency (USP7 IC50)

SMILES | IC50 [nM]
Cc1cc(Cl)cc(-c2ccnc3cc(Cn4c(=O)ccn(CC(F)(F)F)c4=O)sc23)c1O[C@H]1CN[C@H](C(F)F)C1 [Example 574, 3-[[7-[5-chloro-2-[(3R,5S)-5-(difluoromethyl)pyrrolidin-3-yl]oxy-3-methyl-phenyl]thieno[3,2-b]pyridin-2-yl]methyl]-1-(2,2,2-trifluoroethyl)pyrimidine-2,4-dione] | < 1000
CC[C@@H]1C[C@H](Oc2c(C)cc(Cl)cc2-c2ccnc3cc(Cn4c(=O)ccn(C)c4=O)sc23)CCN1 [Example 611, 3-[[7-[5-chloro-2-[[(2R,4R)-2-ethyl-4-piperidyl]oxy]-3-methyl-phenyl]thieno[3,2-b]pyridin-2-yl]methyl]-1-methyl-pyrimidine-2,4-dione] | < 1000
Cc1cc(C(F)(F)F)cc(-c2ccnc3cc(Cn4c(=O)c(F)cn(C)c4=O)sc23)c1O[C@H]1CCCNC1 [Example 460, 5-fluoro-1-methyl-3-[[7-[3-methyl-2-[[(3S)-3-piperidyl]oxy]-5-(trifluoromethyl)phenyl]thieno[3,2-b]pyridin-2-yl]methyl]pyrimidine-2,4-dione] | < 1000

Other lines, results leading:

IC50 [nM] | SMILES
< 1000 | Cc1cc(Cl)cc(-c2ncnc3cc(Cn4c(=O)ccn(CC(F)(F)F)c4=O)sc23)c1O[C@H]1CNC[C@@H]1C [Example 578, 3-[[4-[5-chloro-3-methyl-2-[(3R,4S)-4-methylpyrrolidin-3-yl]oxy-phenyl]thieno[3,2-d]pyrimidin-6-yl]methyl]-1-(2,2,2-trifluoroethyl)pyrimidine-2,4-dione]
< 1000 | Cc1cc(Cl)cc(-c2ccnc3cc(Cn4c(=O)ccn(CC(F)(F)F)c4=O)sc23)c1O[C@@H]1CNC[C@@H]1C [Example 566, 3-[[7-[5-chloro-3-methyl-2-[(3S,4S)-4-methylpyrrolidin-3-yl]oxy-phenyl]thieno[3,2-b]pyridin-2-yl]methyl]-1-(2,2,2-trifluoroethyl)pyrimidine-2,4-dione]
